Format in all cases: cell-based
For experiment [1], the system named is SRE (Serum response element). As to the kind of experiment: SRE luciferase reporter assay in HEK293 cells. The settings on record: HEK293, TPA 10 ng/ml 18 hours. The procedure:
All expression plasmids were transiently transfected into HEK293 cells in a 96-well plate (0.1 μg/well) by using Effectene transfection reagent (Qiagen, Valencia, Calif.) according to the manufacturer's manual. HEK293 cells were maintained in Dulbecco's modified Eagle medium (Sigma, St. Louis, Mo.) supplemented with 10% fetal bovine serum (Atlanta Biologicals, Lawrenceville, Ga.) and incubated at 37° C. in a 5% CO2 incubator. After 24 hrs incubation, the medium was changed to DMEM with 0.2% FBS, and the transfectants were exposed to various concentrations of compound I and TPA (10 ng/ml). Cells were lysed with passive lysis buffer and the luciferase assay was performed using the Firefly-Luciferase reporter assay system (Promega, Madison, Wis.) and MLX Luminometer (Dynex Technology, Chantilly, Va.).
Three different luciferase reporter genes, AP-1 reporter containing four times TRE consensus originated from GCN4 and SRE reporter purchased from Stratagene (La Jolla, Calif.) respectively are as described previously (Suzukawa et al., Environ. Health Perspect., 2002, 110, 865-70). NFκB reporter is driven by five times NFκB responsive element inserted into Cis-reporter backbone (Stratagene, La Jolla, Calif.). […]
In general terms: Reporter assays use an easily measured gene product as a stand-in for the process of interest.

The test system of experiment [2] is AP-1. As to the kind of experiment: EMSA of AP-1 DNA binding, HEK293 nuclear fractions. The conditions noted are these: 17 μM. The procedure:
EMSA was performed with the nuclear fraction of HEK293 cell using LightShift Chemiluminescent EMSA Kit (Pierce Biotechnology, Rockford, Ill.) according to the manufacture's instruction. Oligonucleotides for NFκB, NF-1, and AP-1 were labeled with biotin by Biotin 3′ End DNA labeling Kit (Pierce Biotechnology, Rockford, Ill.). The quantified 15 μg of nuclear extracts were incubated for 20 mins with 1 μg/μl Poly (dI.dC), biotin end-label target nucleotides in 20 μl binding buffer DNA-protein complexes were fractionated on 6% a polyacrylamide gel and transferred to a nylon membrane. The membranes were processed to detect biotin-label DNA by cross-linking, blocking, and detection incubations. Results were obtained by X-ray film exposure for 10 sec and development. The target sequences of oligonucleotides for NFκB, NF-1, and AP-1 are as follows;
To determine whether the effect of compound I on nuclear translocation of NFκB leads to inhibited binding of NFκB proteins to DNA, EMSA in HEK293 cells was performed. […] TPA-induced binding complex was attenuated by pretreatment with compound I in a dose-dependent manner (lanes 5-9). This binding inhibition parallels the inhibition of luciferase reporter transactivation and inhibition of nuclear translocation of NFκB proteins. […]

Experiment [3] concerns IκBα. As to the kind of experiment: Immunoblot of phosphorylated IκBα in HEK293 cells. The protocol:
To measure endogenous level of several proteins in response to TPA induction and compound I, HEK293 cells were lysed with RIPA buffer (10 mM Tris-HCl pH 7.5, 1 mM EDTA, 0.1% sodium dodecyl sulfate, 0.1% deoxycholate, and protease inhibitor). Whole cell extracts were subjected to immunoblot analysis with the following antibodies: p65 (F-6), p50 (E-10), p52 (C-5), RelB (C-19), IκBα (C-21), PCNA (F-2) were obtained from Santa Cruz Biotechnology (Santa Cruz, Calif.). IKKα, IKKβ, IKKγ, phospho-IκBα, phospho-IKKα/β, phospho-IKKγ, pohospho-Stat3 (Tyr 705 and Ser 727), phospho-p65 (Ser536 and Ser276), phospho-p44/42, phospho-JNKs were purchased from Cell Signaling (Danvers, Mass.), and α-tubulin from Sigma (St. Louis, Mo.). Nuclear and cytoplasmic extracts were prepared with HEK293 cells by NE-PER Nuclear and Cytoplasmic Extraction Reagents (Pierce Biotechnology, Rockford, Ill.) according to the manufacturer's protocol.
To characterize the activity of compound I in targeting events upstream of NFκB, endogenous levels of kinases involved in NFκB activation were examined by immunoblot analysis. The well-established upstream regulators of NFκB activation are IKKα, IKKβ, and IκBα. […] Moreover, the phosphorylation of IκBα was inhibited even at 1.1 μM showing dose-dependent decrease by compound I pretreatment. […] In addition, compound I inhibits TNFα-induced phosphorylation of IKKα/β and IκBα at 1 hour. IKKβ from IKKα was not able to be distinguished in this analysis with antibodies which detect phosphorylated IKKα at Ser176/180 and IKKβ at Ser177/181. TPA-induced phosphorylation of IκBα is mediated primarily through IKKβ catalytic activity; thus compound I represses phosphorylation of IKKβ and in an embodiment both IKKβ and IKKα. […] The total protein levels of IKKα/β, IKKγ, and IκBα were not affected. Thus, upstream activation events rather than transcription factor binding to DNA are targeted by compound I when it inhibits NFκB induction.
(In general: A western blot detects proteins with antibodies after separation by electrophoresis.)

The source of these data is patent publication US8729053B2, “Nuclear factor kappa B pathway inhibitor composition and use of same” (The United States of America, as represented by the …, priority 2008, dated 2014).

Molecules are shown by their SMILES. “Also recorded” adds a separate entry of the source. Where a name gives a salt, the structure may show the parent alone.

As for `Cc1cc(N)ccc1N=Nc1ccc(S(=O)(=O)CCOS(=O)(=O)O)cc1` [compound I, 2-(4-((4-amino-2-methylphenyl)diazenyl)phenylsulfonyl)ethyl hydrogen sulfate], the “TPA-induced SRE luciferase activity” value in experiment [1] is on record as “repressed but to a lesser degree than AP-1”. Moreover, the “AP-1 DNA binding activity” value in experiment [2] is on record as “little or no effect”. Also, the “TPA-induced phosphorylation of IκBα” value in experiment [3] (1.1 μM) is “inhibited; also recorded: reduced”; in experiment [3] (17.0 and 8.5 μM pretreatment, HEK293), “almost completely blocked; also recorded: complete blocking”; in experiment [3] (at 6 and 12 hours), “inhibited”. In experiment [3] (HEK293 immunoblot), the “Total protein levels of IKKα/β, IKKγ, and IκBα” value was “not affected”. Besides, the “TNFα-induced phosphorylation of IκBα” value in experiment [3] (at 1 hour) is recorded as “inhibits”.
